Results as given in US20060252807A1, “Novel ortho-terphenyl inhibitors of p38 kinase and methods of treating inflammatory disorders” (Kalypsys, Inc., priority 2005, published 2006).

target: T1, active p38 alpha enzyme (Upstate Biotechnology) (Homo sapiens, UniProt Q16539); experiment: p38α biochemical assay (ATP turnover, luminescent detection, Cambrex PKlight); settings: p38α kinase; Table 1 Biological Activity
T1 construct: purchased Upstate Biotechnology
In short: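 Active p38α phosphorylates MapkapK2 whole protein with 1.4 uM final ATP, 2 h at 30C, in Tris/MOPS buffer with MgCl2, CaCl2, EGTA, EDTA, glycerol, β-mercaptoethanol and 1 mg/ml BSA. Compounds pin-delivered from DMSO; total ATP turnover read by luminescence after PKlight addition.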

T1 sequence (Q16539 whole entry): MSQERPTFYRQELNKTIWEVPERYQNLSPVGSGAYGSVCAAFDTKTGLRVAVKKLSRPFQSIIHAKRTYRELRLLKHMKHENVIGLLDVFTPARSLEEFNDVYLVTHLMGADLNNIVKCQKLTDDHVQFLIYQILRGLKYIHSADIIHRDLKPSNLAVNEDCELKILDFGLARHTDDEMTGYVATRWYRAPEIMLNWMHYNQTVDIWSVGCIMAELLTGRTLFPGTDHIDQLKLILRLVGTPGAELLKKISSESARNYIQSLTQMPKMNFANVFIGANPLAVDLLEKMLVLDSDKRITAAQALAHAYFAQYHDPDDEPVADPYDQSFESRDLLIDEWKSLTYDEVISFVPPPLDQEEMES

Row | SMILES | IC50
1 | CC(C)NC(=O)c1csc(-c2c(-c3ccc(F)cc3)n[nH]c2C2CCN(C(=O)c3ccc(C(F)(F)F)cc3[N+](=O)[O-])CC2)n1 [Example 1033] | > 1000 nM
2 | CC(C)NC(=O)c1csc(-c2c(-c3ccc(F)cc3)n[nH]c2C2CCN(C(=O)c3cc(Br)ccc3Cl)CC2)n1 [Example 1034] | > 1000 nM
3 | CC(C)NC(=O)c1csc(-c2c(-c3ccc(F)cc3)n[nH]c2C2CCN(C(=O)c3ccc(Cl)c(Br)c3)CC2)n1 [Example 1035] | > 1000 nM
4 | CC(C)NC(=O)c1csc(-c2c(-c3ccc(F)cc3)n[nH]c2C2CCN(C(=O)c3ccccc3C(=O)c3ccc(O)cc3)CC2)n1 [Example 1036] | > 1000 nM
5 | CC(C)NC(=O)c1csc(-c2c(-c3ccc(F)cc3)n[nH]c2C2CCN(C(=O)c3ccccc3C(=O)c3ccc(F)cc3)CC2)n1 [Example 1037] | > 1000 nM
6 | CC(C)NC(=O)c1csc(-c2c(-c3ccc(F)cc3)n[nH]c2C2CCN(C(=O)C(C)c3ccc(-c4ccccc4)c(F)c3)CC2)n1 (stereo not drawn) [Example 1038] | > 1000 nM
7 | CC(C)NC(=O)c1csc(-c2c(-c3ccc(F)cc3)n[nH]c2C2CCN(C(=O)C3CCCN3C(=O)OCc3ccccc3)CC2)n1 (stereo not drawn) [Example 1041] | > 1000 nM
8 | CCC(C)C(NC(=O)OC(C)(C)C)C(=O)N1CCC(c2[nH]nc(-c3ccc(F)cc3)c2-c2nc(C(=O)NC(C)C)cs2)CC1 (stereo not drawn) [Example 1042] | > 1000 nM
9 | CC(C)CC(NC(=O)OC(C)(C)C)C(=O)N1CCC(c2[nH]nc(-c3ccc(F)cc3)c2-c2nc(C(=O)NC(C)C)cs2)CC1 (stereo not drawn) [Example 1043] | ≤ 1000 nM
10 | CC(C)NC(=O)c1csc(-c2c(-c3ccc(F)cc3)n[nH]c2C2CCN(C(=O)C(C)c3cccc(C(=O)c4ccccc4)c3)CC2)n1 (stereo not drawn) [Example 1044] | > 1000 nM
11 | CC(C)NC(=O)c1csc(-c2c(-c3ccc(F)cc3)n[nH]c2C2CCN(C(=O)C(Cc3ccccc3)NC(=O)OC(C)(C)C)CC2)n1 (stereo not drawn) [Example 1045] | > 1000 nM
12 | CC(C)NC(=O)c1csc(-c2c(-c3ccc(F)cc3)n[nH]c2C2CCN(C(=O)C(Cc3ccccn3)NC(=O)OC(C)(C)C)CC2)n1 (stereo not drawn) [Example 1046] | > 1000 nM
13 | CC(C)NC(=O)c1csc(-c2c(-c3ccc(F)cc3)n[nH]c2C2CCN(C(=O)C3Cc4ccccc4CN3C(=O)OC(C)(C)C)CC2)n1 (stereo not drawn) [Example 1047] | > 1000 nM
14 | CC(C)NC(=O)c1csc(-c2c(-c3ccc(F)cc3)n[nH]c2C2CCN(C(=O)C(Cc3ccc(O)cc3)NC(=O)OC(C)(C)C)CC2)n1 (stereo not drawn) [Example 1048] | > 1000 nM
15 | CC(C)NC(=O)c1csc(-c2oc(CNC3CC3)nc2-c2ccc(F)cc2)n1 [Example 1053] | > 1000 nM
16 | CC(C)NCc1nc(-c2ccc(F)cc2)c(-c2nc(C(=O)NC(C)C)cs2)o1 [Example 1054] | > 1000 nM
17 | CC(C)NC(=O)c1csc(-c2oc(CNCCC#N)nc2-c2ccc(F)cc2)n1 [Example 1058] | > 1000 nM
18 | CC(C)NC(=O)c1csc(-c2oc(CNC3CCC3)nc2-c2ccc(F)cc2)n1 [Example 1059] | > 1000 nM
19 | CC(C)NC(=O)c1csc(-c2oc(CNCC3CC3)nc2-c2ccc(F)cc2)n1 [Example 1060] | > 1000 nM

Row | SMILES | IC50
20 | CCC(C)NCc1nc(-c2ccc(F)cc2)c(-c2nc(C(=O)NC(C)C)cs2)o1 (stereo not drawn) [Example 1061] | > 1000 nM
21 | CC(C)NC(=O)c1csc(-c2oc(CNC(C)CO)nc2-c2ccc(F)cc2)n1 (stereo not drawn) [Example 1064] | ≤ 1000 nM
22 | CC(C)NC(=O)c1csc(-c2oc(CNC3CCCC3)nc2-c2ccc(F)cc2)n1 [Example 1066] | > 1000 nM
23 | CCCC(C)NCc1nc(-c2ccc(F)cc2)c(-c2nc(C(=O)NC(C)C)cs2)o1 (stereo not drawn) [Example 1067] | > 1000 nM
24 | CC(C)NC(=O)c1csc(-c2oc(CNC(C)C(C)C)nc2-c2ccc(F)cc2)n1 (stereo not drawn) [Example 1069] | ≤ 1000 nM
25 | CC(C)CCNCc1nc(-c2ccc(F)cc2)c(-c2nc(C(=O)NC(C)C)cs2)o1 [Example 1070] | > 1000 nM
26 | CC(C)NC(=O)c1csc(-c2oc(CNCCN(C)C)nc2-c2ccc(F)cc2)n1 [Example 1071] | > 1000 nM
27 | COCC(C)NCc1nc(-c2ccc(F)cc2)c(-c2nc(C(=O)NC(C)C)cs2)o1 (stereo not drawn) [Example 1072] | > 1000 nM
28 | CCC(CO)NCc1nc(-c2ccc(F)cc2)c(-c2nc(C(=O)NC(C)C)cs2)o1 (stereo not drawn) [Example 1073] | > 1000 nM
29 | CCC(CO)NCc1nc(-c2ccc(F)cc2)c(-c2nc(C(=O)NC(C)C)cs2)o1 (stereo not drawn) [Example 1074] | ≤ 1000 nM
30 | CC(C)NC(=O)c1csc(-c2oc(CNCCCCO)nc2-c2ccc(F)cc2)n1 [Example 1075] | > 1000 nM
31 | CC(C)NC(=O)c1csc(-c2oc(CNC3CCCCC3)nc2-c2ccc(F)cc2)n1 [Example 1077] | > 1000 nM
32 | CC(C)NC(=O)c1csc(-c2oc(CNCC3CCCO3)nc2-c2ccc(F)cc2)n1 (stereo not drawn) [Example 1078] | > 1000 nM
33 | CC(C)NC(=O)c1csc(-c2oc(CNCCC(C)(C)C)nc2-c2ccc(F)cc2)n1 [Example 1079] | ≤ 1000 nM
34 | CC(C)CC(C)NCc1nc(-c2ccc(F)cc2)c(-c2nc(C(=O)NC(C)C)cs2)o1 (stereo not drawn) [Example 1080] | > 1000 nM
35 | CC(C)NC(=O)c1csc(-c2oc(CNC3CONC3=O)nc2-c2ccc(F)cc2)n1 (stereo not drawn) [Example 1081] | > 1000 nM
36 | CC(C)NC(=O)c1csc(-c2oc(CNN3CCOCC3)nc2-c2ccc(F)cc2)n1 [Example 1082] | > 1000 nM
37 | CC(C)NC(=O)c1csc(-c2oc(CNC(CO)C(C)C)nc2-c2ccc(F)cc2)n1 (stereo not drawn) [Example 1083] | > 1000 nM

Other lines, results leading:

Row | IC50 | SMILES
38 | > 1000 nM | CNCc1nc(-c2ccc(F)cc2)c(-c2nc(C(=O)NC(C)C)cs2)o1 [Example 1049]
39 | > 1000 nM | CCNCc1nc(-c2ccc(F)cc2)c(-c2nc(C(=O)NC(C)C)cs2)o1 [Example 1050]
40 | > 1000 nM | C#CCNCc1nc(-c2ccc(F)cc2)c(-c2nc(C(=O)NC(C)C)cs2)o1 [Example 1051]
41 | > 1000 nM | CC(C)NC(=O)c1csc(-c2oc(CNCC#N)nc2-c2ccc(F)cc2)n1 [Example 1052]
42 | > 1000 nM | CCCNCc1nc(-c2ccc(F)cc2)c(-c2nc(C(=O)NC(C)C)cs2)o1 [Example 1055]
43 | > 1000 nM | CC(C)NC(=O)c1csc(-c2oc(CNCCN)nc2-c2ccc(F)cc2)n1 [Example 1056]
44 | > 1000 nM | CC(C)NC(=O)c1csc(-c2oc(CNCCO)nc2-c2ccc(F)cc2)n1 [Example 1057]
45 | > 1000 nM | CC(C)CNCc1nc(-c2ccc(F)cc2)c(-c2nc(C(=O)NC(C)C)cs2)o1 [Example 1062]
46 | > 1000 nM | CC(C)NC(=O)c1csc(-c2oc(CNCCCO)nc2-c2ccc(F)cc2)n1 [Example 1063]
47 | ≤ 1000 nM | COCCNCc1nc(-c2ccc(F)cc2)c(-c2nc(C(=O)NC(C)C)cs2)o1 [Example 1065]
48 | > 1000 nM | CCC(C)CNCc1nc(-c2ccc(F)cc2)c(-c2nc(C(=O)NC(C)C)cs2)o1 (stereo not drawn) [Example 1068]
49 | > 1000 nM | CC(C)NC(=O)c1csc(-c2oc(CNCc3ccco3)nc2-c2ccc(F)cc2)n1 [Example 1076]
50 | > 1000 nM | CC(C)NC(=O)c1csc(-c2oc(CNCc3ccccc3)nc2-c2ccc(F)cc2)n1 [Example 1084]
51 | > 1000 nM | CC(C)NC(=O)c1csc(-c2oc(CNCc3cccnc3)nc2-c2ccc(F)cc2)n1 [Example 1085]
52 | ≤ 1000 nM | CC(C)NC(=O)c1csc(-c2oc(CNCc3ccccn3)nc2-c2ccc(F)cc2)n1 [Example 1086]
53 | > 1000 nM | CC(C)NC(=O)c1csc(-c2oc(CNCc3ccncc3)nc2-c2ccc(F)cc2)n1 [Example 1087]
54 | > 1000 nM | CC(C)NC(=O)c1csc(-c2oc(CNCc3cccs3)nc2-c2ccc(F)cc2)n1 [Example 1088]
